The values below come from patent US20260102407A1, “TREATMENT METHODS” (priority 2020, published 2026).

Each structure is given as a SMILES string.

Assay [1] relates to Brown Norway pigmented rats. As to the kind of experiment: Rat choroidal laser injury model, fluorescein leakage. Type of assay: in vivo. The following applies: 192 μg IVT, Days 0 and 7, HRA score Days 14 and 21. The text has this: (§1) Rat choroidal laser injury model. Male Brown Norway pigmented rats (8-14 week-old) were anesthetized by an intramuscular injection of Rompun® (xylazine)/Imalgene® (ketamine). Pupils were dilated by instillation of one drop of 0.5% tropicamide before laser burn. Six burns were created in both eyes on Day 0 by applying 170 mW of 532 nm laser light (Viridis laser, Quantel, France) on 75 μm spots around the optic nerve, between the main retinal vessel branches, for 0.1s, through the slit lamp and contact lens. Production of a bubble at the time of laser application confirmed the rupture of Bruch's membrane. Compounds in vehicle (saline containing 0.01% DMSO and 0.5% Tween 80, sonicated) in 2-5 μl were injected IVT on Days 0 and 7 under an operating microscope using a 30G needle mounted on a 100 μl Hamilton syringe. Kenacort was administered IVT into each eye on Day 0. Alternatively, aflibercept/Eylea in vehicle (saline) was injected IVT 6 times (Days 0, 3, 7, 10, 14, 17). […] After anaesthesia, 10% sodium fluorescein (250 μl/100 g body weight) was injected subcutaneously, and ocular fluorescence was recorded 10 min after dye injection. Fluorescein leakage was evaluated on Days 14 and 21 in the angiograms by two examiners masked to the study groups and graded for fluorescein intensity as follows: score 0: no leakage; 1: slightly stained; 2: moderately stained; 3: strongly stained.

A further assay has as its system pERK. Briefly: Immunohistochemical staining of rat retina, pERK. Type of assay: in vivo. As to conditions: lasered rat retinas.
From the text: as §1, with “membrane.” for “membrane. Compounds in vehicle (saline containing 0.01% DMSO and 0.5% Tween 80, sonicated) in 2-5 μl were injected IVT on Days 0 and 7 under an operating microscope using a 30G needle mounted on a 100 μl Hamilton syringe. Kenacort was administered IVT into each eye on Day 0. Alternatively, aflibercept/Eylea in vehicle (saline) was injected IVT 6 times (Days 0, 3, 7, 10, 14, 17).”
Immunohistochemical staining of rat retina. […] IOD of positive staining (red chromogen) was assessed for CD31, VEGF-A165, pERK, FosB and VCAM-1 using Image-Pro Plus software (Cybernetics, Bethesda, MD). IOD in IPL and INL was quantified for CD31; OPL to OS for VEGF-A165; INL to ONL for pERK; GCL to OS for FosB; OLM for VCAM-1, using Image-Pro Plus. […]

Assay [2] has as its system THP-1 transendothelial migration. As to the kind of experiment: Monocyte-transendothelial migration assay toward MCP-1. Type of assay: cell-based, human. As to conditions: HMEC; 20 ng/ml IL-1β; 24 h. Here is the method: Monocyte-transendothelial migration assay. Millicell 8 μm polycarbonated culture plate inserts (Millipore) were coated with 0.1% porcine gelatin type A (Sigma) and then placed into 24-well plates. HMEC (5×10^4 cells/well) were seeded onto the insert and allowed to adhere overnight. Cells were then serum deprived for 24 h and treated with various compound treatments for 1 h. IL-1β (20 ng/ml) was added to stimulate the cells for 4 h and 500 μl of serum-free medium was added to the bottom of the 24-well plate along with the compound. THP-1 (5×10^5 cells in 100 μl) were added into the insert and 100 ng/ml MCP-1 (Sigma) was added to the lower well. After 24 h, the number of cells that had migrated though the endothelial layer was assessed by counting 100 μl of the suspension in the lower chamber using a Coulter cell counter (Beckman Coulter).

In another assay the test system is c-Fos. Briefly: Western blot, serum-inducible c-Fos expression in HMEC-1. The following applies: 30 μM compound, 10% FBS 1 h. Type of assay: cell-based, human. The procedure: Western blot analysis with extracts of cells treated with serum. HMEC-1 (80-90% confluency) were arrested in serum-free MCDB131 medium without EGF or hydrocortisone for 20 h. Cells were treated with 30 μM compound in serum-free MCDB131 medium for 4 h, and the medium was changed to complete medium (with 10% FBS with EGF and hydrocortisone) with 30 μM compound for 1 h. Total protein was harvested as previously described in radioimmunoprecipitation (RIPA) lysis buffer with protease inhibitors (Li, Y., et al., Int J Cardiol 220, 185-191 (2016)). Proteins were resolved on 4-20% (w/v) sodium dodecyl sulfate (SDS)-polyacrylamide gradient gels (Bio-Rad Mini-PROTEAN TGX) and transferred to Immobilon-P PVDF membranes (Millipore, USA). Membranes were blocked with 5% skim milk and incubated with rabbit monoclonal FosB (cat. 2251, 1:1000, Cell Signaling, USA), rabbit monoclonal c-Fos antibodies (cat. 2250, 1:1000, Cell Signaling, USA) at 4° C. overnight or mouse monoclonal […] antibodies (cat. A5316, 1:30000, Sigma-Aldrich) at 22° C. for 15 min then incubated with a horseradish peroxidase conjugated secondary goat anti-rabbit (cat. P0448, 1:1000, DAKO Cytomation, Denmark) or goat anti-mouse (cat. P0447, 1:1000, DAKO Cytomation, Denmark) antibodies for 1 h. Chemiluminescence was detected using the Western Lightning Chemiluminescence system (PerkinElmer, USA) and ImageQuant™ LAS 4000 biomolecular imager (GE Healthcare Life Sciences, USA). Band intensity in images generated with the LAS 4000 on automatic exposure with sensitivity/resolution setting high was quantified using NIH ImageJ.

In the case of `CCOC(=O)Nc1ccc2c(c1)C(=O)N(CC)c1ccccc1O2` [BT2, (10-ethyl-11-oxo-10,11-dihydro-dibenzo[b,f][1,4]oxazepin-2-yl)-carbamic acid ethyl ester], the “reduction of retinal permeability (fluorescein leakage)” value in assay [1] is approximately 50%. Besides, the “inducible pERK staining in the INL, OPL and ONL” value in the assay on pERK is “suppressed inducible pERK staining”. In assay [2], the “transendothelial migration of THP-1 monocytes toward MCP-1” value was “inhibits the transendothelial migration”. Besides, the “serum-inducible c-Fos expression (Western blot)” value in the assay with c-Fos was “blocked the inducible expression of c-Fos”.
